The record followed here is PubChem BioAssay (NCI).

Several values for one entry are separate records, joined by “and”; a condition that tells them apart may be missing. Identical values can stand only once.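 These data come from cells grown in 96-well plates and exposed to compound for 48 hours at five concentrations. At the GI50, growth is halved. Definition used: TGI = concentration required for complete inhibition of growth.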

Some test systems named below: SNB-75 CNS; MALME-3M melanoma; SK-MEL-2 melanoma; UACC-62 melanoma; SF-295 CNS; HCT-15 colon; RPMI-8226 leukemia; HCC-2998 colon; HT29 colon.
Holding throughout (experiment): growth of human tumour cells (NCI), 48 h

With `COC1=C2C[C@@H](C)C[C@@H](OC)[C@@H](O)[C@H](C)/C=C(\C)[C@@H](OC(N)=O)[C@H](OC)/C=C\C=C(/C)C(=O)NC(=CC1=O)C2=O`, in the experiment with SNB-75 CNS, the GI50 was 7.93 µM and 4.68 µM and 1.12 µM; the TGI is 18.6 µM and 19.2 µM and 3.97 µM. In addition, in the experiment on MALME-3M melanoma, the TGI is 8.13 µM and 3.44 µM and 1.13 µM.
Take `COc1ccc(C(=O)C(C(=O)C(=O)NC2C3CC4CC(C3)CC2C4)c2ccc(OC)cc2)cc1` (stereo not given): the TGI with SNB-75 CNS, in the experiment with SK-MEL-2 melanoma, in the experiment on UACC-62 melanoma, with SF-295 CNS, with HCT-15 colon and with RPMI-8226 leukemia was above 100 µM in each case. For the same molecule, the TGI in the experiment on MALME-3M melanoma, in the experiment on HCC-2998 colon and in the experiment with HT29 colon was above 100 µM in each case.
Regarding `CCC1CC(C)=CCN1S(=O)(=O)c1ccc(C)cc1` (stereo not given), the TGI was 50.6 µM with SNB-75 CNS; 27.2 µM in the experiment on SK-MEL-2 melanoma; 57.8 µM in the experiment with UACC-62 melanoma; above 100 µM in the experiment on SF-295 CNS; 83.7 µM in the experiment on HCT-15 colon; 20.5 µM with RPMI-8226 leukemia. Besides, the TGI in the experiment on MALME-3M melanoma was determined as 61.7 µM; with HT29 colon, 39.3 µM.
`CN(C)C1=NC2=S(SC(Nc3ccccc3)=N2)S1` (stereo not given): the TGI was 60.6 µM with SNB-75 CNS; above 100 µM in the experiment with SK-MEL-2 melanoma; above 100 µM in the experiment on UACC-62 melanoma; 88.9 µM in the experiment on SF-295 CNS; above 100 µM in the experiment with HCT-15 colon; 57.1 µM with RPMI-8226 leukemia. The values for the TGI in the experiment with MALME-3M melanoma, in the experiment on HCC-2998 colon and with HT29 colon were 46.5 µM, above 100 µM and above 100 µM, respectively.
For the molecule `NC(=O)Nc1c([N+](=O)[O-])cc(C(F)(F)F)cc1[N+](=O)[O-]`, the TGI with SK-MEL-2 melanoma, in the experiment with UACC-62 melanoma, with SF-295 CNS, in the experiment with HCT-15 colon, with RPMI-8226 leukemia and with HT29 colon was above 100 µM each time.
For the molecule `O=C(c1nc2ccc(Cl)cc2[nH]c1=O)C(O)c1ccc2c(c1)OCO2` (stereo not given), the TGI in the experiment with SNB-75 CNS, with SK-MEL-2 melanoma, in the experiment on UACC-62 melanoma, in the experiment with SF-295 CNS, in the experiment with RPMI-8226 leukemia and in the experiment with MALME-3M melanoma was above 100 µM each time. Besides, the TGI in the experiment with HCC-2998 colon and in the experiment on HT29 colon was above 100 µM each time.
Consider `CCOC(=O)C(=O)Nc1c(C)cccc1C(C)C`, for which the TGI in the experiment with SNB-75 CNS, in the experiment with SK-MEL-2 melanoma, with UACC-62 melanoma, with SF-295 CNS, with HCT-15 colon and with RPMI-8226 leukemia was above 100 µM each time. Besides, the TGI with MALME-3M melanoma and in the experiment with HT29 colon was above 100 µM each time.
As to `COc1ccc(C(=O)CC(=O)C(=O)Nc2ccc(C)c(C)c2)cc1`, the TGI in the experiment with SNB-75 CNS was 94.6 µM; with SK-MEL-2 melanoma, above 100 µM; in the experiment with UACC-62 melanoma, above 100 µM; with SF-295 CNS, above 100 µM; in the experiment with HCT-15 colon, above 57.1 µM; with RPMI-8226 leukemia, above 68 µM. The TGI with MALME-3M melanoma, in the experiment with HCC-2998 colon and in the experiment on HT29 colon was above 100 µM in each case.
As to `CC1=NC(C(C)C)C(=O)O1` (stereo not given), the TGI is above 100 µM with SNB-75 CNS; above 100 µM in the experiment with UACC-62 melanoma; above 100 µM in the experiment with SF-295 CNS; above 100 µM in the experiment with HCT-15 colon; 56 µM in the experiment with RPMI-8226 leukemia; above 100 µM with MALME-3M melanoma. In addition, the TGI in the experiment with HCC-2998 colon and in the experiment on HT29 colon was above 100 µM throughout.
For the molecule `O=C1OC(c2ccccc2)=N/C1=C\c1cc(Cl)ccc1Cl`, the TGI was 36.3 µM with SNB-75 CNS; above 100 µM in the experiment with SK-MEL-2 melanoma; above 100 µM in the experiment with UACC-62 melanoma; above 100 µM in the experiment on SF-295 CNS; 82.9 µM with HCT-15 colon; above 100 µM with RPMI-8226 leukemia. The TGI in the experiment with MALME-3M melanoma, in the experiment with HCC-2998 colon and in the experiment on HT29 colon was above 100 µM throughout.
`CCOC(=O)NC(=O)c1cn(CCCOC(=O)NCCCCCCNC(=O)OCCCn2cc(C(=O)NC(=O)OCC)c(=O)[nH]c2=O)c(=O)[nH]c1=O`: the TGI with SNB-75 CNS was 45.2 µM; in the experiment with UACC-62 melanoma, 38.8 µM; with SF-295 CNS it was 49.4 µM; with HCT-15 colon it was 65.1 µM; in the experiment on RPMI-8226 leukemia, 39.2 µM; in the experiment with HCC-2998 colon it was above 100 µM. This molecule had a TGI in the experiment on HT29 colon above 100 µM.
On to `CCCc1nc(NC#N)nc(C(=O)NC23CC4CC(CC(C4)C2)C3)c1C`, for which the TGI with SNB-75 CNS, with SK-MEL-2 melanoma, with UACC-62 melanoma, with SF-295 CNS, in the experiment on HCT-15 colon and with RPMI-8226 leukemia was above 100 µM in each case. In addition, the TGI with MALME-3M melanoma, in the experiment on HCC-2998 colon and in the experiment with HT29 colon was above 100 µM each time.
As to `O=NN/C(=C1\Nc2ccc([N+](=O)[O-])cc2NC1=O)C(O)c1ccc([N+](=O)[O-])cc1` (stereo not given), the TGI in the experiment on SNB-75 CNS, with UACC-62 melanoma, in the experiment on SF-295 CNS, in the experiment with HCT-15 colon, with RPMI-8226 leukemia and in the experiment on MALME-3M melanoma was above 100 µM each time. Besides, the TGI with HCC-2998 colon and in the experiment with HT29 colon was above 100 µM in each case.
Consider `COC(=O)CS(=O)c1ccccc1` (stereo not given), for which the TGI in the experiment on SK-MEL-2 melanoma was above 100 µM; with UACC-62 melanoma, above 100 µM; with SF-295 CNS, above 100 µM; in the experiment on HCT-15 colon it was above 100 µM; with RPMI-8226 leukemia it was 52.2 µM; in the experiment on MALME-3M melanoma, above 100 µM. The TGI in the experiment on HCC-2998 colon and in the experiment with HT29 colon was above 100 µM throughout.
Regarding `Cc1nn(-c2ccccc2)c2nc3c(nc12)C1=NCCN1C(c1ccc(Cl)cc1)N3` (stereo not given), the GI50 in the experiment with SNB-75 CNS was 1.62 µM; with SK-MEL-2 melanoma, 2.3 µM; in the experiment on UACC-62 melanoma it was 1.95 µM; with SF-295 CNS, 2.56 µM; in the experiment with HCT-15 colon it was 2.89 µM; in the experiment on RPMI-8226 leukemia, 2.22 µM. Moreover, the GI50 was 2.18 µM in the experiment on MALME-3M melanoma, 1.92 µM in the experiment on HCC-2998 colon and 2.5 µM with HT29 colon. Further, the TGI in the experiment on SNB-75 CNS is 6.25 µM; in the experiment on SK-MEL-2 melanoma, 4.46 µM; in the experiment on UACC-62 melanoma it was 3.8 µM; with SF-295 CNS, 8.24 µM; with HCT-15 colon, 9.75 µM; in the experiment on RPMI-8226 leukemia it was 5.28 µM. In addition, the TGI in the experiment on MALME-3M melanoma was 4.12 µM; with HCC-2998 colon, 3.49 µM; with HT29 colon, 5.96 µM.
Consider `O=C(O)c1cccc2cccc(C(=O)O)c12.[Hg]`, for which the GI50 was 18.9 µM in the experiment on SNB-75 CNS; 17.4 µM with SK-MEL-2 melanoma; above 100 µM with UACC-62 melanoma; 17.8 µM in the experiment with SF-295 CNS; 14.4 µM in the experiment on HCT-15 colon; 4.04 µM in the experiment on MALME-3M melanoma. Moreover, the GI50 is 12 µM in the experiment with HCC-2998 colon and 13.8 µM in the experiment on HT29 colon. In addition, the TGI in the experiment with SNB-75 CNS is 36.9 µM; in the experiment with SK-MEL-2 melanoma it was 31.6 µM; in the experiment on UACC-62 melanoma, above 100 µM; in the experiment on SF-295 CNS, 32.2 µM; in the experiment on HCT-15 colon, 29.8 µM; in the experiment with MALME-3M melanoma, 15 µM. Also, the TGI worked out at 25.3 µM in the experiment with HCC-2998 colon and 27.2 µM in the experiment with HT29 colon.
With `Cc1ccc(C(=O)C#Cc2c[nH]c(=O)[nH]c2=O)cc1`, the TGI in the experiment on SNB-75 CNS was 34.4 µM; in the experiment with SK-MEL-2 melanoma, 27.6 µM; in the experiment on UACC-62 melanoma, 21.8 µM; in the experiment on SF-295 CNS, above 100 µM; in the experiment with HCT-15 colon it was 37.7 µM; in the experiment on MALME-3M melanoma, 18.7 µM. For the same molecule, the TGI was 25.3 µM in the experiment with HCC-2998 colon and 49.5 µM in the experiment with HT29 colon.
For the molecule `COC(=O)C(Cc1ccccc1)NC(=O)Cn1ccnc1[N+](=O)[O-]` (stereo not given), the TGI in the experiment with SNB-75 CNS, in the experiment with SK-MEL-2 melanoma, in the experiment on UACC-62 melanoma, in the experiment on SF-295 CNS, with HCT-15 colon and in the experiment on RPMI-8226 leukemia was above 100 µM throughout. The TGI in the experiment with MALME-3M melanoma and in the experiment with HT29 colon was above 100 µM each time.
In the case of `COc1ccccc1C(N)c1ccccc1` (stereo not given), the TGI with SNB-75 CNS, in the experiment on UACC-62 melanoma, in the experiment with SF-295 CNS, in the experiment with HCT-15 colon, in the experiment on RPMI-8226 leukemia and with MALME-3M melanoma was above 100 µM each time. For the same molecule, the TGI in the experiment with HCC-2998 colon and in the experiment with HT29 colon was above 100 µM each time.
For `COc1ccc(-c2cc(-c3cc(C)ccc3O)[nH]c(=O)n2)cc1`, the TGI with SNB-75 CNS was 66.8 µM; in the experiment on UACC-62 melanoma, above 100 µM; with SF-295 CNS it was above 100 µM; with RPMI-8226 leukemia it was above 100 µM; in the experiment on MALME-3M melanoma, above 100 µM; with HCC-2998 colon, above 100 µM. For the same molecule, in the experiment with HT29 colon, the TGI is above 100 µM.
Consider `COC1OC(COS(=O)(=O)c2ccc(C)cc2)C(O)C(OS(=O)(=O)c2ccc(C)cc2)C1OS(=O)(=O)c1ccc(C)cc1` (stereo not given), for which the TGI in the experiment on SNB-75 CNS, in the experiment on SK-MEL-2 melanoma, in the experiment on SF-295 CNS, with HCT-15 colon, in the experiment with RPMI-8226 leukemia and in the experiment with MALME-3M melanoma was above 100 µM each time. Besides, the TGI with HCC-2998 colon and with HT29 colon was above 100 µM throughout.
As to `CC(=O)c1ccc(NC(=O)C(=O)C(C(=O)c2ccc(Cl)c(Cl)c2)C2OC(=O)c3ccccc32)cc1` (stereo not given), the TGI with UACC-62 melanoma worked out at 33.7 µM; in the experiment on HCT-15 colon it was 34.7 µM; in the experiment on MALME-3M melanoma, 24.9 µM; in the experiment with HCC-2998 colon it was 26.9 µM; in the experiment with HT29 colon, 67.7 µM.
For the molecule `COc1cc(Nc2nc3cc(C(F)(F)F)ccc3nc2-c2ccccc2)cc(OC)c1OC`, the TGI with SNB-75 CNS, in the experiment on SK-MEL-2 melanoma, in the experiment with UACC-62 melanoma, in the experiment on SF-295 CNS, with HCT-15 colon and in the experiment on MALME-3M melanoma was above 100 µM throughout. Also, the TGI with HCC-2998 colon and in the experiment with HT29 colon was above 100 µM in each case.
